This is an account of results in a melting point compilation (Tetko et al.).

On to `CCCCCCCCCCCCCCCCCCCC(=O)OC`, for which the melting point (commonly the temperature of the solid-liquid transition) was found to be 54.5 °C.
Then `N#CCOc1ccc(Cl)cc1Cl`, with 46 to 48 °C; and `O=C(OCC(=O)N1CCOCC1)c1ccccc1`, with 104 °C; and `Cn1c([N+](=O)[O-])cnc1C=Cc1ccnc(N)n1`, with 234 °C.
The compound `Nc1cc(F)c(Br)cc1F` showed a melting point of 75 °C.
`Oc1ccc(O)c(Cl)c1` showed a melting point of 108 °C.
`Cn1nc(CCl)c2ccccc21` came in with a melting point of 62 to 63 °C.
The same measure for `Nc1ccc(C(C/C(=N/O)c2ccccc2)NO)cc1` (stereo unspecified): 178 to 179 °C; for `CCCC1OC2CC3C4CCC5=CC(=O)C=CC5(C)C4C(O)CC3(C)C2(C(=O)CO)O1` (stereo unspecified): 226 °C.
The same measure for `Cc1cc(Br)cc(C)c1I`: 42 to 44 °C; for `Ic1ccc(-n2cccn2)cc1`: 91 to 92 °C; for `Cc1cccc(Cl)c1N`: 2 °C.
The compound `CC(C)Oc1ccccc1` returned a melting point of -33 °C.
`CCCCCCC(N)C(=O)O` (stereo unspecified) showed a melting point of 270 °C.
Then `COC(CNC(c1ccccc1)C(O)c1ccccc1)OC` (stereo unspecified), with 145 °C; and `CC1CNC(C(O)(C2=NCC(C)N2)C2=NCC(C)N2)=N1` (stereo unspecified), with 178 to 180 °C.
The compound `CC(C)C/C(Cc1ccccc1)=N\NC(N)=O` came in with a melting point of 89 °C.
Then `CCCCCCCCC=CCCCCCCCC(=O)O`, with 45 °C; and `O=C(O)C=Cc1ccccc1F`, with 179 °C; and `CCP(=O)(c1ccccc1)c1ccccc1`, with 122 °C.
For the compound `O=S1(=O)CC(Br)C(Br)C1` (stereo unspecified), the melting point came to 143 °C.
In turn, `O=C1COC(c2ccc(C(F)(F)F)cc2)CN1` (stereo unspecified) had a melting point of 116 °C.
The same measure for `CC(=O)Nc1ccc2c(c1)CCC2`: 106 to 108 °C.
Turning to `CC1=CCC(C(C)(C)O)CC1` (stereo unspecified), the melting point turned out to be 40.5 °C.
Compound `O=C(Cc1ccccc1)C(Cc1ccccc1)=NNc1ccccc1` had a melting point of 137 °C.
Then `Clc1cc2c(cc1Cl)Oc1ccccc1O2`, with 163 °C; and `COC1=C(C(C)C)C(=O)C2=C(C1=O)C1(C)CCCC(C)(C)C1CC2O` (stereo unspecified), with 138 °C.
Consider `N#Cc1c(S)nc2c(c1C(F)(F)F)CCCC2`, for which the melting point was 216 to 220 °C.
The same measure for `COc1cc2c(c(Oc3c(OC)cc4c(c3O)C(CC(C)C)N(C)CC4)c1O)C(CC(C)C)N(C)CC2` (stereo unspecified): 164 °C; for `Cc1ccc(P(=S)(c2ccc(C)cc2)c2ccc(C)cc2)cc1`: 185 to 186 °C.
`CC1(C)OC(=O)C(=NNc2cccc([N+](=O)[O-])c2)C(=O)O1` came in with a melting point of 192 °C.
The same measure for `Ic1ccc(OCc2ccccc2)cc1`: 62 °C; for `CCOC(=O)C(=Nn1nnc2ccccc21)C(=O)OCC`: 100 °C; for `O=C(NCc1ccccc1)c1cccnc1Cl`: 120 °C.
The same measure for `O=C1C(=Cc2ccccc2)SC(=S)N1CNc1cccc([N+](=O)[O-])c1`: 190 °C.
Compound `Cc1ccc(NC(=O)C(F)(F)C(F)(F)C(F)(F)C(F)(F)C(F)(F)C(F)(F)C(F)(F)C(F)(F)F)cc1C` gave a melting point of 111 °C.
In turn, `O=C(CS(=O)C(c1ccccc1)c1ccccc1)NO` (stereo unspecified) showed a melting point of 159 °C.
The same measure for `O=[N+]([O-])c1ccccc1/C=C/c1nc2ccccc2s1`: 131 °C.
Turning to `O=C=Nc1ccc2sccc2c1`, the melting point was 58 °C.
Turning to `Nc1c(F)cc(O)cc1F`, the melting point was 149 °C.
The same measure for `O=C(O)C1CN(C(c2ccccc2)c2ccccc2)C1`: 178 to 180 °C.
On to `O=C(O)Cc1cccs1`, for which the melting point came out at 63 °C.
Turning to `Brc1nc2ccccc2s1`, the melting point lay in the range of 40 to 42 °C.
Compound `CC(C)(C)OC(=O)CC(=O)OC(C)(C)C` displayed a melting point of -6 °C.
Then `N#CC1=C(N)Oc2c(c(C(F)(F)F)nn2-c2ccccc2)C1c1ccc(Cl)cc1Cl` (stereo unspecified), with 210 °C; and `CCOC(=O)c1sc(SC)c2c1CCCC2O` (stereo unspecified), with 119 to 122 °C.
Then `COc1ccc(OC)c(/C=N/n2c(S)nnc2C(F)(F)F)c1`, with 145 °C; and `NC(=S)N1CCOCC1`, with 153 to 156 °C.
Then `Cc1ccc2ocnc2c1`, with 43 °C.
`Sc1nc2cccnc2s1` gave a melting point of 300 °C.
For the compound `CCOc1ccccc1C(N)=O`, the melting point was 133 °C.
The same measure for `COc1cc(NS(C)(=O)=O)ccc1Nc1c2ccccc2nc2ccccc12`: 235 °C.
`Nc1nnc(-c2ccccc2)c(Nc2ccc(Cl)cc2)n1`: the melting point was 297 °C.
Then `CC(=O)C=CC(=O)O`, with 124 °C.
Consider `Cc1cc(C(=O)NCc2ccc(Cl)cc2)no1`, for which the melting point was in the range of 140 to 143 °C.
Then `CC(C)(CCC(=O)O)C(=O)O`, with 84 °C; and `CC(C)NC(=O)CC#N`, with 62 to 65 °C.
Compound `CCCCCCCCCCCCC#CC#CCCCCCCCCC(=O)O` gave a melting point of 64 °C.
In turn, `O=C(CCCCC(=O)NCCCC(=O)ON1C(=O)CCC1=O)NCCCC(=O)ON1C(=O)CCC1=O` yielded a melting point of 145 °C.
In turn, `COC(=O)c1cc(N)cc(O)c1` had a melting point of 124 to 126 °C.
`O=C(Nc1ccc([N+](=O)[O-])cc1Cl)c1cc(Cl)ccc1O` showed a melting point of 230 °C.
Then `O=C(O)c1ccccc1`, with 122 °C; and `S=C=Nc1ccc(-n2cccn2)cc1`, with 97 to 99 °C; and `COC(=O)c1ccc[nH]1`, with 73 to 75 °C.
The same measure for `S=C=Nc1c(Br)cc(Br)cc1Br`: 106 to 110 °C; for `CCCC(=O)c1ccc(O)cc1`: 91 °C; for `CNC(c1ccccc1)C(NC)c1ccccc1` (stereo unspecified): 48 to 51 °C.
`CCCCCCC(CCCCCC)CCCCCC`: the melting point is -28.3 °C.
Then `CCCCCC=CCC=CCC=CCC=CCCCC(=O)O`, with -49.5 °C; and `O=C(O)C1=NN(c2ccccc2)C(=O)C1=CC1C(=O)N(c2ccccc2)N=C1C(=O)O` (stereo unspecified), with 257 to 260 °C; and `CCCC(C)(COC(N)=O)COC(N)=O`, with 104 °C.
The same measure for `CCOC(=O)c1c(SC)nc2ccc(Cl)cc2c1Cl`: 134 to 137 °C; for `CC(C)[C@@H](N)C(=O)O`: 302 to 303 °C; for `CC(=O)OC1C2=C(C(=O)C(O)=C(C(C)C)C2=O)C2(C)CCCC(C)(C)C2C1O` (stereo unspecified): 216 °C.
The same measure for `Nc1c(C(F)(F)F)cc(Cl)nc1Cl`: 50 to 51 °C.
In the case of `O=C(O)C1CCNCC1`, the melting point is 336 °C.
Then `Cc1cc([N+](=O)[O-])ccc1C(=O)O`, with 154 °C; and `O=CNC(O)C(Cl)(Cl)Cl` (stereo unspecified), with 120 °C; and `Cc1ccc(C)c(CC(=O)O)c1`, with 128 to 132 °C.
The same measure for `CCOC(=O)c1cc2c(=O)oc3ccccc3c2nc1C`: 167 °C; for `Cc1cc(S(=O)(=O)Cl)c(Cl)cc1Cl`: 72 °C.
